From patent US11760764B2, “Methods and compositions for targeting PD-L1” (Aligos Therapeutics, Inc., priority 2020, dated 2023) come the findings set out here.

PD-1/PD-L1 interaction (PDL1-6×His protein, PD1-Fc-Avi-Biotin protein), sequence (Q9NZQ7 19-238 limits assumed): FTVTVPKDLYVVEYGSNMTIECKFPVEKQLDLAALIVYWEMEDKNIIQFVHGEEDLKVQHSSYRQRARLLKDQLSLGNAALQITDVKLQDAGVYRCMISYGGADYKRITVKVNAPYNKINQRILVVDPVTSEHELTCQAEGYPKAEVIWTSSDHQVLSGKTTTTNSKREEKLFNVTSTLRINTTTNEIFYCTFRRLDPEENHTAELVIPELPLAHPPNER
T1 sequence (Q9NZQ7 19-290): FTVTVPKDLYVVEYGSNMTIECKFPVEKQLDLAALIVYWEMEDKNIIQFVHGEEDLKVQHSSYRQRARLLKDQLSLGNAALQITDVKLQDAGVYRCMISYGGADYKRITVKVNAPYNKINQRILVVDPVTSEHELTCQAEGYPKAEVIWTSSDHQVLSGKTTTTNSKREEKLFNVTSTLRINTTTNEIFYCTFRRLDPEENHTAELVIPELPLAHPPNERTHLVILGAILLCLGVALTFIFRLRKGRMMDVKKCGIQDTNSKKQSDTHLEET

The first assay addresses PD-1/PD-L1 interaction (PDL1-6×His protein, PD1-Fc-Avi-Biotin protein) (Homo sapiens, UniProt Q9NZQ7). The assay is described as follows: PDL1/PD1 Binding Assay. The note with it: Table C; 0.3 nM PDL1, 2.5 nM PD1; read-out: PD-1/PD-L1 PPI IC50. As to the method:
Compounds to be tested were serially diluted in DMSO, and further diluted in assay buffer (25 mM Hepes pH 7.4, 150 mM NaCl, 0.005% Tween 20, BSA 0.01%). Diluted compounds were added to the wells with final concentration of DMSO at 1%. PDL1-6×His protein was added to the wells, mixed well with compound. The plates were incubated for 30 min at room temperature. PD1-Fc-Avi-Biotin protein was added to the wells. […] After a binding time of 30 min at room temperature, Anti-6×His Acceptor beads (final concentration 20 ug/ml) were added to the wells, and the incubation continued for 1 h. Streptavidin Donor beads (final concentration 20 ug/mL) were added at reduced light. The plates were sealed with foil and incubated in the dark for additional 1 h or overnight before reading on an Envision reader. The IC50s were determined by fitting the curves using a four-parameter equation in Graphpad Prism 8.
In the case of `Cc1cc2c(cc1-c1cccc(-c3cccc(-c4cc5c(cc4C)CNCC5)c3Cl)c1Cl)CCNC2` [Compound B-16], the IC50 was 100 to 1000 nM.
Same read-out and setting: as for `Clc1c(-c2cc3c(cn2)CNCC3)cccc1-c1cccc(-c2cc3c(cn2)CNCC3)c1Cl` [Compound B-4], the figure is 10 to 100 nM.
The same measure, in the same setting: as for `CC1Cc2cc(-c3cccc(-c4cccc(-c5ccc6c(c5)CC(C)N(C[C@@H](O)CC(=O)O)C6)c4Cl)c3Cl)ccc2CN1C[C@@H](O)CC(=O)O` (stereo partly shown) [Compound C-9], the figure is at most 10 nM; as for `CCOC(=O)CN[C@H]1CCc2cc(-c3cccc(-c4cccc(-c5ccc6c(c5)CC[C@@H]6NCC(=O)OCC)c4Cl)c3Cl)ccc21` [Compound F-1], 100 to 1000 nM; as for `CC1Cc2cc(-c3cccc(-c4cccc(-c5ccc6c(c5)CC(C)NC6)c4Cl)c3Cl)ccc2CN1` (stereo not shown) [Compound B-13], 10 to 100 nM.
Turning to `Cc1c(-c2cccc(-c3cccc(-c4ccc5c(c4C)CCNC5)c3Cl)c2Cl)ccc2c1CCNC2` [Compound B-14], the IC50 lay in the range of 100 to 1000 nM.
Still for that read-out and setting: the result for `O=C(O)C[C@H](O)CN1Cc2ccc(-c3cccc(-c4cccc(-c5ccc6c(c5)CN(C[C@@H](O)CC(=O)O)C6)c4Cl)c3Cl)cc2C1` [Compound C-1] reads at most 10 nM; that for `O=C1CC[C@@H](CNC2Cc3ccc(-c4cccc(-c5cccc(-c6ccc7c(c6)CC(O)C7)c5Cl)c4Cl)cc3C2)N1` (stereo partly shown) [Compound A-7], 100 to 1000 nM; that for `Clc1c(-c2ccc3c(c2)CNC3)cccc1-c1cccc(-c2ccc3c(c2)CNC3)c1Cl` [Compound B-2], 10 to 100 nM.
On the same count and under the same terms, as for `Fc1cc(-c2cccc(-c3cccc(-c4cc(F)c5c(c4)CCNC5)c3Cl)c2Cl)cc2c1CNCC2` [Compound B-10], the figure is 10 to 100 nM; as for `O=C(O)CNC1Cc2ccc(-c3cccc(-c4cccc(-c5ccc6c(c5)CC(NCC(=O)O)C6)c4Cl)c3Cl)cc2C1` (stereo not shown) [Compound A-5], at most 10 nM.
On the same count and under the same terms, as for `N[C@@H]1CCc2cc(-c3cccc(-c4cccc(-c5ccc6c(c5)CC[C@H]6N)c4Cl)c3Cl)ccc21` [Compound B-8], the figure is 100 to 1000 nM; as for `Clc1c(-c2ccc3c(c2)CCNC3)cccc1-c1cccc(-c2ccc3c(c2)CCN(c2ncccn2)C3)c1Cl` [Compound K-1], 1000 to 10000 nM.
Consider `CC(=O)N1CC(N2CCOc3nc(-c4cccc(-c5cccc(-c6ccc7c(n6)OCCN(C6CN(C(C)=O)C6)C7)c5Cl)c4Cl)ccc3C2)C1` [Compound I-1], for which the IC50 is above 10000 nM.
Still for that read-out and setting: as for `Clc1c(-c2ccc3c(c2)COC32CNC2)cccc1-c1cccc(-c2ccc3c(c2)COC32CNC2)c1Cl` [Compound B-12], the figure is 1000 to 10000 nM.
Same read-out and setting: as for `O=C(O)CN1CCc2cc(-c3cccc(-c4cccc(-c5ccc6c(c5)CCN(CC(=O)O)C6)c4Cl)c3Cl)ccc2C1` [Compound H-2], the figure is at most 10 nM; as for `CC1(C)CN(C[C@@H](O)CC(=O)O)Cc2ccc(-c3cccc(-c4cccc(-c5ccc6c(c5)C(C)(C)CN(C[C@@H](O)CC(=O)O)C6)c4Cl)c3Cl)cc21` [Compound C-7], 100 to 1000 nM; as for `O=C(O)C[C@H](O)CN1CCc2cc(-c3cccc(-c4cccc(-c5cc(F)c6c(c5)CCN(C[C@@H](O)CC(=O)O)C6)c4Cl)c3Cl)cc(F)c2C1` [Compound C-8], at most 10 nM.
Same read-out and setting: as for `O=C(O)C[C@H](O)CN1CCc2nc(-c3cccc(-c4cccc(-c5ccc6c(n5)CCN(C[C@@H](O)CC(=O)O)C6)c4Cl)c3Cl)ccc2C1` [Compound C-3], the figure is 100 to 1000 nM; as for `O=C(O)C[C@H](O)CN1CCc2ccc(-c3cccc(-c4cccc(-c5ccc6c(c5)CN(C[C@@H](O)CC(=O)O)CC6)c4Cl)c3Cl)cc2C1` [Compound C-6], at most 10 nM.
`Clc1c(-c2ccc3c(n2)OCCNC3)cccc1-c1cccc(-c2ccc3c(n2)OCCNC3)c1Cl` [Compound B-5]: the IC50 was 100 to 1000 nM.
On the same count and under the same terms, as for `O=C1CC[C@@H](CNC2Cc3ccc(-c4cccc(-c5cccc(-c6ccc7c(c6)CC(NC[C@@H]6CCC(=O)N6)C7)c5Cl)c4Cl)cc3C2)N1` (stereo partly shown) [Compound A-6], the figure is at most 10 nM.
On the same count and under the same terms, the result for `Cc1c(-c2cccc(-c3cccc(-c4ccc5c(c4C)CNCC5)c3Cl)c2Cl)ccc2c1CNCC2` [Compound B-15] reads 1000 to 10000 nM; that for `O=C(O)CN1CCc2ccc(-c3cccc(-c4cccc(-c5ccc6c(c5)CN(CC(=O)O)CC6)c4Cl)c3Cl)cc2C1` [Compound H-1], at most 10 nM.
Same read-out and setting: as for `CC(=O)NCCNC1CCc2cc(-c3cccc(-c4cccc(-c5ccc6c(c5)CCC6NCCNC(C)=O)c4Cl)c3Cl)ccc21` (stereo not shown) [Compound A-3], the figure is 10 to 100 nM; as for `Clc1c(-c2ccc3c(n2)CCNC3)cccc1-c1cccc(-c2ccc3c(n2)CCNC3)c1Cl` [Compound B-3], 10 to 100 nM; as for `O=C(O)CNC1CCc2cc(-c3cccc(-c4cccc(-c5ccc6c(c5)CCC6NCC(=O)O)c4Cl)c3Cl)ccc21` (stereo not shown) [Compound A-1], at most 10 nM.
In the case of `O=C(O)CN1CC2(C1)OCc1cc(-c3cccc(-c4cccc(-c5ccc6c(c5)COC65CN(CC(=O)O)C5)c4Cl)c3Cl)ccc12` [Compound H-4], the IC50 was 10 to 100 nM.
Same read-out and setting: as for `N[C@@H](CC(=O)O)C(=O)N1CCc2ccc(-c3cccc(-c4cccc(-c5ccc6c(c5)CN(C(=O)[C@@H](N)CC(=O)O)CC6)c4Cl)c3Cl)cc2C1` [Compound J-1], the figure is 10 to 100 nM; as for `COc1cc(-c2cccc(-c3cccc(-c4cc5c(c(OC)c4)CNCC5)c3Cl)c2Cl)cc2c1CNCC2` [Compound B-17], 10 to 100 nM.
Still for that read-out and setting: as for `Clc1c(-c2ccc3c(c2)CCNC3)cccc1-c1cccc(-c2ccc3c(c2)CCNC3)c1Cl` [Compound B-1], the figure is at most 10 nM; as for `CC(=O)NCCNC1Cc2ccc(-c3cccc(-c4cccc(-c5ccc6c(c5)CC(NCCNC(C)=O)C6)c4Cl)c3Cl)cc2C1` (stereo not shown) [Compound A-4], 10 to 100 nM.
On the same count and under the same terms, the result for `N[C@H]1CCc2cc(-c3cccc(-c4cccc(-c5ccc6c(c5)CC[C@@H]6N)c4Cl)c3Cl)ccc21` [Compound B-7] reads 100 to 1000 nM; that for `O=C(O)CN1CCC12CCc1cc(-c3cccc(-c4cccc(-c5ccc6c(c5)CCC5(CCN5CC(=O)O)C6)c4Cl)c3Cl)ccc1C2` (stereo not shown) [Compound H-3], 100 to 1000 nM; that for `O=C(O)C[C@H](O)CN1CCOc2nc(-c3cccc(-c4cccc(-c5ccc6c(n5)OCCN(C[C@@H](O)CC(=O)O)C6)c4Cl)c3Cl)ccc2C1` [Compound C-5], 1000 to 10000 nM.
For the compound `O=C(O)C[C@H](O)CN1CCc2cc(-c3cccc(-c4cccc(-c5ccc6c(c5)CCN(C[C@@H](O)CC(=O)O)C6)c4Cl)c3Cl)ccc2C1` [Compound C-2], the IC50 was at most 10 nM.
On the same count and under the same terms, as for `Clc1c(-c2ccc3c(c2)CC(N2CCOCC2)C3)cccc1-c1cccc(-c2ccc3c(c2)CC(N2CCOCC2)C3)c1Cl` (stereo not shown) [Compound A-8], the figure is 100 to 1000 nM; as for `CC1(C)CNCc2ccc(-c3cccc(-c4cccc(-c5ccc6c(c5)C(C)(C)CNC6)c4Cl)c3Cl)cc21` [Compound B-9], 1000 to 10000 nM; as for `O=C(O)C[C@H](O)CN1CCc2cc(-c3cccc(-c4cccc(-c5cc6c(cn5)CN(C[C@@H](O)CC(=O)O)CC6)c4Cl)c3Cl)ncc2C1` [Compound C-4], 10 to 100 nM.

Another assay concerns the target T1, PD-1/PD-L1 interaction (Jurkat cells overexpressing PD-1 co-cultured with PD-L1 expressing CHO cells) (Homo sapiens, UniProt Q9NZQ7).
T1 construct: expressed in transfected cells; Jurkat cells (PD-1 and NF-AT luciferase construct)
The assay is described as follows: PD-1/PD-L1 NFAT Reporter Assay. The format is cell-based. The note with it: Table C-1; Jurkat/CHO co-culture, 6 hrs at 37° C., luciferase activity. Here is the method:
Blocking the PD-1/PD-L1 interaction will release the inhibitory signal and results in TCR signaling and NFAT-mediated luciferase activity.
CHO cells expressing surface-bound anti-CD3 antibodies and PD-L1 were first seeded overnight and treated with the compounds. Jurkat cells overexpressing PD-1 and a luciferase construct under NF-AT promoter were then immediately seeded on the monolayer of CHO cells. The co-culture was then incubated for 6 hrs at 37° C. Luciferase activity was assessed by adding the ONE-Glo reagent and measuring luminescence with a plate reader. EC50s values were determined from the fit of the dose-response curves
Background: Reporter assays use an easily measured gene product as a stand-in for the process of interest.
Usually EC50 stands for the midpoint of the concentration-response curve. Read a high EC50 as lower potency in that assay. For `COc1cc(-c2cccc(-c3cccc(-c4cc5c(c(OC)c4)[C@@H](N4CC(C(=O)O)C4)CC5)c3Cl)c2Cl)cc2c1[C@@H](NC[C@@H]1CCC(=O)N1)CC2` (single isomer, unassigned) [Compound N-2B], the EC50 lay in the range of 100 to 1000 nM.
Same read-out and setting: as for `COCCN1CCc2c(cc(-c3cccc(-c4cccc(-c5cc6c(c(OC)c5)[C@@H](N5CC(C(=O)O)C5)CC6)c4Cl)c3Cl)nc2OC)C1` [Compound O-2B], the figure is 10 to 100 nM; as for `CCOC(=O)C1CN([C@H]2CCc3cc(-c4cccc(-c5cccc(-c6cc7c(c(OC)n6)[C@@H](NC[C@@H]6CCC(=O)N6)CC7)c5Cl)c4Cl)nc(OC)c32)C1` (single isomer, unassigned) [Compound N-1A], 10 to 100 nM.
Same read-out and setting: the result for `CCOC(=O)C1CN([C@H]2CCc3cc(-c4cccc(-c5cccc(-c6cc7c(c(OC)c6)[C@H](NC[C@@H]6CCC(=O)N6)CC7)c5Cl)c4Cl)cc(OC)c32)C1` (single isomer, unassigned) [Compound N-3A] reads 10 to 100 nM; that for `COc1nc(-c2cccc(-c3cccc(-c4cc5c(c(OC)n4)[C@@H](NC[C@@H]4CCC(=O)N4)CC5)c3Cl)c2Cl)cc2c1[C@@H](NC[C@@H]1CCC(=O)N1)CC2` [Compound L-3], at most 10 nM.
With `CCOC(=O)C1CN([C@H]2CCc3cc(-c4cccc(-c5cccc(-c6cc7c(c(OC)c6)[C@@H](NC[C@@H]6CCC(=O)N6)CC7)c5Cl)c4Cl)cc(OC)c32)C1` (single isomer, unassigned) [Compound N-2A], the “PD-1/PD-L1 NFAT Reporter Assay” value is “n.r”.
`COc1cc(-c2cccc(-c3cccc(-c4cc5c(c(OC)c4)[C@@H](NC[C@@H]4CCC(=O)N4)CC5)c3Cl)c2Cl)cc2c1[C@@H](NC[C@@H]1CCC(=O)N1)CC2` (single isomer, unassigned) [Compound L-2] showed a half-maximal effective concentration (EC50) above 10000 nM.
